ChEMBL document CHEMBL1201862, “PubChem BioAssay data set” (2004)
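Cultured in 96-well plates, cells were exposed to test compound for 48 hours across five concentrations. At the GI50, growth is halved.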 Active and inactive are the calls of the source. No stated cut-off is given here; in the data, active = GI50 up to about 1.1 µM and inactive = higher.

Key:
Test in all cases: inhibition of tumour cell growth, NCI panel, 48 h
[1] = system: 786-0
[2] = system: A498
[3] = system: ACHN
[4] = system: HOP-92
[5] = system: HT-29
[6] = system: Hs-578T
[7] = system: IGROV-1
[8] = system: K562
[9] = system: MCF7
[10] = system: NCI-H226
[11] = system: NCI-H522
[12] = system: NCI/ADR-RES
[13] = system: OVCAR-3
[14] = system: OVCAR-4
[15] = system: OVCAR-5
[16] = system: OVCAR-8
[17] = system: SF-268
[18] = system: SK-MEL-5
[19] = system: SK-OV-3
[20] = system: SW-620

## CN(C)c1ccc(C(=NNC(=O)c2cc3ccccc3[nH]2)c2ccc(N(C)C)cc2)cc1
[1]
  GI50: 1.53 µM (inactive)
[2]
  GI50: 1.05 µM (active)
[3]
  GI50: 1.1 µM (active)
[4]
  GI50: 3.22 µM (inactive)
[5]
  GI50: 0.195 µM (active)
[6]
  GI50: 0.359 µM (active)
[7]
  GI50: 0.395 µM (active)
[8]
  GI50: 0.0792 µM (active)
[9]
  GI50: 0.245 µM (active)
[10]
  GI50: 35.8 µM (inactive)
[11]
  GI50: 0.275 µM (active)
[12]
  GI50: 0.177 µM (active)
[13]
  GI50: 0.276 µM (active)
[14]
  GI50: 2.73 µM (inactive)
[15]
  GI50: 0.94 µM (active)
[16]
  GI50: 0.608 µM (active)
[17]
  GI50: 0.433 µM (active)
[18]
  GI50: 0.407 µM (active)
[19]
  GI50: 1.62 µM (inactive)
[20]
  GI50: 0.299 µM (active)

## CCCC(=O)Nc1cc(C(=O)N2C[C@@H]3C[C@]34C2=CC(=O)c2[nH]cc(C)c24)n(COC)c1
[1]
  GI50: 5.47 µM (inactive)
[2]
  GI50: 10 µM (inactive)
[3]
  GI50: 5.93 µM (inactive)
[4]
  GI50: 1.4 µM (inactive)
[5]
  GI50: 8.55 µM (inactive)
[6]
  GI50: 14.5 µM (inactive)
[7]
  GI50: 6.52 µM (inactive)
[8]
  GI50: 2.33 µM (inactive)
[9]
  GI50: 1.36 µM (inactive)
[10]
  GI50: 11.2 µM (inactive)
[11]
  GI50: 0.977 µM (active)
[12]
  GI50: 13.9 µM (inactive)
[13]
  GI50: 6.81 µM (inactive)
[14]
  GI50: 8.02 µM (inactive)
[15]
  GI50: 34.4 µM (inactive)
[16]
  GI50: 1.94 µM (inactive)
[17]
  GI50: 1.48 µM (inactive)
[18]
  GI50: 1.54 µM (inactive)
[19]
  GI50: 16.3 µM (inactive)
[20]
  GI50: 1.62 µM (inactive)

## COc1cc(CNc2nc3ccccc3nc2C(=O)O)cc(OC)c1OC
[1]
  GI50: > 100 µM (inactive)
[2]
  GI50: > 100 µM (inactive)
[3]
  GI50: > 100 µM (inactive)
[4]
  GI50: 65 µM (inactive)
[5]
  GI50: > 100 µM (inactive)
[6]
  GI50: 42.1 µM (inactive)
[7]
  GI50: > 100 µM (inactive)
[8]
  GI50: > 100 µM (inactive)
[9]
  GI50: 81.1 µM (inactive)
[10]
  GI50: > 100 µM (inactive)
[11]
  GI50: 71.9 µM (inactive)
[12]
  GI50: > 100 µM (inactive)
[13]
  GI50: > 100 µM (inactive)
[14]
  GI50: > 100 µM (inactive)
[15]
  GI50: > 100 µM (inactive)
[16]
  GI50: > 100 µM (inactive)
[17]
  GI50: > 100 µM (inactive)
[18]
  GI50: 98.4 µM (inactive)
[19]
  GI50: 69.8 µM (inactive)
[20]
  GI50: > 100 µM (inactive)

## COc1cccc2c1C(=O)c1c(O)c3c(c(O)c1C2=O)C[C@@](O)(C(C)=O)CC3OC1CC(OC2CC(N)C(O)C(C)O2)C(O)C(C)O1 (stereo not given in full)
[1]
  GI50: 32.5 µM (inactive)
[2]
  GI50: > 100 µM (inactive)
[3]
  GI50: 38.7 µM (inactive)
[4]
  GI50: 31.3 µM (inactive)
[5]
  GI50: 39.5 µM (inactive)
[6]
  GI50: > 48.4 µM (inactive)
[7]
  GI50: 31.4 µM (inactive)
[8]
  GI50: 19.6 µM (inactive)
[9]
  GI50: 7.66 µM (inactive)
[10]
  GI50: 51.1 µM (inactive)
[11]
  GI50: 45.4 µM (inactive)
[12]
  GI50: > 100 µM (inactive)
[13]
  GI50: 31 µM (inactive)
[14]
  GI50: > 100 µM (inactive)
[15]
  GI50: > 61.2 µM (inactive)
[16]
  GI50: 57.9 µM (inactive)
[17]
  GI50: 31.3 µM (inactive)
[18]
  GI50: 35.7 µM (inactive)
[19]
  GI50: 51.9 µM (inactive)
[20]
  GI50: 32.7 µM (inactive)

## N=C(N)NCCCC(NC(=O)c1cccc2c(=O)c3ccccc3[nH]c12)C(=O)O (stereo not given)
[1]
  GI50: > 100 µM (inactive)
[2]
  GI50: > 100 µM (inactive)
[3]
  GI50: > 100 µM (inactive)
[4]
  GI50: 58.9 µM (inactive)
[5]
  GI50: > 100 µM (inactive)
[6]
  GI50: > 100 µM (inactive)
[7]
  GI50: > 100 µM (inactive)
[8]
  GI50: > 100 µM (inactive)
[9]
  GI50: > 100 µM (inactive)
[10]
  GI50: > 100 µM (inactive)
[11]
  GI50: > 100 µM (inactive)
[12]
  GI50: > 100 µM (inactive)
[13]
  GI50: > 100 µM (inactive)
[14]
  GI50: > 100 µM (inactive)
[15]
  GI50: > 100 µM (inactive)
[16]
  GI50: > 100 µM (inactive)
[17]
  GI50: > 100 µM (inactive)
[18]
  GI50: > 100 µM (inactive)
[19]
  GI50: > 100 µM (inactive)
[20]
  GI50: > 100 µM (inactive)

## CNn1c(-c2ccc(C)cc2)n[nH]c1=O
[1]
  GI50: > 100 µM (inactive)
[2]
  GI50: > 100 µM (inactive)
[3]
  GI50: > 100 µM (inactive)
[4]
  GI50: > 100 µM (inactive)
[5]
  GI50: > 100 µM (inactive)
[6]
  GI50: > 100 µM (inactive)
[7]
  GI50: > 100 µM (inactive)
[8]
  GI50: 55.8 µM (inactive)
[9]
  GI50: > 100 µM (inactive)
[10]
  GI50: > 100 µM (inactive)
[11]
  GI50: > 100 µM (inactive)
[12]
  GI50: > 100 µM (inactive)
[13]
  GI50: > 100 µM (inactive)
[14]
  GI50: > 100 µM (inactive)
[15]
  GI50: > 100 µM (inactive)
[16]
  GI50: > 100 µM (inactive)
[17]
  GI50: > 100 µM (inactive)
[18]
  GI50: > 100 µM (inactive)
[19]
  GI50: > 100 µM (inactive)
[20]
  GI50: > 100 µM (inactive)

## COC(=O)c1c(O)ccc2c1c1c(n2Cc2ccccc2OC)C(=O)c2ccccc2C1=O
[1]
  GI50: 11.4 µM (inactive)
[2]
  GI50: 40 µM (inactive)
[3]
  GI50: 7.53 µM (inactive)
[4]
  GI50: 3.78 µM (inactive)
[5]
  GI50: 8.18 µM (inactive)
[6]
  GI50: 18 µM (inactive)
[7]
  GI50: 12.6 µM (inactive)
[8]
  GI50: 1.67 µM (inactive)
[9]
  GI50: 6.34 µM (inactive)
[10]
  GI50: 15.3 µM (inactive)
[11]
  GI50: 11 µM (inactive)
[12]
  GI50: 6.95 µM (inactive)
[13]
  GI50: 10 µM (inactive)
[14]
  GI50: 11.7 µM (inactive)
[15]
  GI50: 21.1 µM (inactive)
[16]
  GI50: 4.42 µM (inactive)
[17]
  GI50: 11.6 µM (inactive)
[18]
  GI50: 13.1 µM (inactive)
[19]
  GI50: 16.3 µM (inactive)
[20]
  GI50: 14.2 µM (inactive)
